Patent publication US6348445B1, “Biologically active peptides with reduced toxicity in animals and a method for preparing same” (priority 1992, dated 2002)
Read-outs that look alike come from different tables or passages of the source. *1 amine or outer side, *2 acyl side, *3 side chain or, on linkers, in order; H or OH if unused. Where a SMILES comes first, the peptide text is derived from it. Where no end group is shown, it is not given here. [ ]: non-standard residue; d: D form. The star is where a group is joined. hArg = N=C(N)NCCCC[C@H](N)C(=O)O; Suc = O=C(CCC(=O)[*:2])[*:1]; Octanoyl = CCCCCCCC(=O)*; Pentanoyl = CCCCC(=O)*

Key:
A. viscosus = assay: anaerobic anti-microbial susceptibility test (MIC); type: cell-based; conditions: 24-48 hours
[1] = test system: P. aeruginosa strain ATCC 27853; type: cell-based
Outline: (§1)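 Broth microdilution per NCCLS M7-T2: final peptide levels 0.25 to 256 μg/ml (twofold steps), inoculum 1-5×10^5 CFUs/ml in full-strength Mueller Hinton broth. MIC read as lowest concentration leaving the well clear after 16-20 hours at 37° C.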

S. mutans = assay: anaerobic anti-microbial susceptibility test (MIC); type: cell-based; parameters: unit not given here; conditions: 24-48 hours
P. gingivalis = conditions: anaerobic, 24-48 hours
C. albicans = type: cell-based
Outline: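 Broth microdilution: mid-log organisms at 1-5×10^5 CFU/ml in Mueller Hinton broth exposed to 2-fold peptide series (0.25–256 μg/ml final). After 16-20 h at 37° C, MIC read as the lowest concentration leaving the well clear.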

[2] = test system: E. coli ATCC strain 25922; assay: Minimal Inhibitory Concentration, microtiter broth dilution; type: cell-based
Outline: as §1

[3] = test system: S.aureus strain ATCC 25923; assay: as above; type: cell-based; conditions: Mueller Hinton broth, 16-20 hours at 37° C.
Text: Table I, which follows, indicates the Minimal Inhibitory Concentration (MIC) in […] of various peptides against S.aureus strain ATCC 25923(S), P. aeruginosa strain ATCC 27853(P), E. coli ATCC strain 25922(E), and C. 4albicans (CA). […] The peptides are unsubstituted at the N-terminal; substituted with an acetyl group at the N-terminal, as indicated by Ac-; substituted with an octanoyl group at the N-terminal, as indicated by Oct-; substituted with spinogosine, as indicated by Sph-; substituted with a succinyl group, as indicated by Suc-; substituted with a hexanoyl group, as indicated by Hex-; substituted with a heptanoyl group, as indicated by Hep-; substituted with a valeryl group, as indicated by Val-; substituted with a myristryl group, as indicated by Myr-; or substituted with an ibuprofyl group, as indicated by Ibu-;
The procedure for the anti-bacterial assay is based upon the guidelines of the National Committee for Clinical Laboratory Standards, Document M7-T2, Volume 8, No. 8, 1988, which document is entirely incorporated herein by reference.
Stock solutions of peptides, with and without the appropriate substitutions, were prepared at a concentration of 512 μg/ml in sterile deionized distilled water and stored at −70° C.
The stock peptide solution was diluted in serial dilutions (1:2) down the wells of a microtiter plate so that the final concentrations of peptides in the wells were 0.25, 0.50, 1, 2, 4, 8, 16, 32, 64, 128 and 256 μg/ml. 1-5×10^5 CFUs/ml of either S. aureus ATCC 25923, E. coli ATCC 25922, P. aeruginosa ATCC 27853, or C. albicans, were added to the wells in full strength Mueller Hinton broth (BBL 11443) from a mid-log culture. The inoculum was standardized spectrophotometrically at 600 nm and was verified by colony counts. The plates were incubated for 16-20 hours at 37° C., and the minimal inhibitory concentration (MIC) for each peptide was determined. Minimal inhibitory concentration is defined as the lowest concentration of peptide which produces a clear well in the microtiter plate. The minimal inhibitory concentration of each of the peptides with and/or without the appropriate substitutions is given in Table I below.

[4] = P. aeruginosa strain ATCC 27853, Table I
[5] = E. coli ATCC strain 25922, Table I

Row | Molecule | MIC A. viscos (A. viscosus) [μl/ml] | Minimal Inhibitory Concentration P ([1]; ATCC 27853) [µg/mL] | MIC S. mutans (S. mutans) | MIC P. gingivalis (strain) 9-14K-1 (P. gingivalis) | MIC P. gingivalis (strain) 381 (P. gingivalis) [μl/ml] | MIC P. gingivalis (strain) 450 (P. gingivalis) [μl/ml] | MIC P. gingivalis (strain) A7A1-28 (P. gingivalis) [μl/ml] | MIC P. gingivalis (strain) FAY-19M-1 (P. gingivalis) | Minimal Inhibitory Concentration CA (C. albicans) [µg/mL] | Minimal Inhibitory Concentration E ([2]; ATCC strain 25922) [µg/mL] | Minimal Inhibitory Concentration P [1, 4] | Minimal Inhibitory Concentration CA (C. albicans; C. albicans, Table I) [µg/mL] | Minimal Inhibitory Concentration E [2, 5] [µg/mL] | Minimal Inhibitory Concentration S [3] [µg/mL]
1 | CC[C@H](C)[C@H](NC(=O)[C@H](CCCCNC(=N)N)NC(=O)CNC(=O)[C@H](C)NC(=O)[C@@H](NC(=O)[C@H](CCCCNC(=N)N)NC(=O)[C@H](C)NC(=O)[C@@H](NC(=O)[C@H](CCCCNC(=N)N)NC(=O)CNC(=O)[C@H](C)NC(=O)[C@@H](NC(=O)[C@H](CCCCNC(=N)N)NC(=O)[C@H](C)NC(=O)[C@@H](NC(=O)[C@H](CCCCNC(=N)N)NC(=O)CNC(=O)[C@H](C)NC(=O)[C@@H](NC(=O)[C@@H](N)CCCCNC(=N)N)[C@@H](C)CC)[C@@H](C)CC)[C@@H](C)CC)[C@@H](C)CC)[C@@H](C)CC)C(=O)N[C@@H](C)C(N)=O [(SEQ ID NO: 66)-NH2, (Har Ile Ala Gly Har Ile Ala)3] (H-[hArg]IAG[hArg]IA[hArg]IAG[hArg]IA[hArg]IAG[hArg]IA-NH2) | 8 | 32 | 8 | 2 μl/ml | 16 | 4 | 4 | 8 μl/ml | 64 | 32 | – | – | – | –
2 | CCCCCCCC(=O)N[C@@H](CCCCN)C(=O)N[C@H](C(=O)N[C@@H](C)C(=O)NCC(=O)N[C@@H](CCCCN)C(=O)N[C@H](C(=O)N[C@@H](C)C(=O)N[C@@H](CCCCN)C(=O)N[C@H](C(=O)N[C@@H](C)C(=O)NCC(=O)N[C@@H](CCCCN)C(=O)N[C@H](C(=O)N[C@@H](C)C(=O)N[C@@H](CCCCN)C(=O)N[C@H](C(=O)N[C@@H](C)C(=O)NCC(=O)N[C@@H](CCCCN)C(=O)N[C@H](C(=O)N[C@@H](C)C(=O)O)[C@@H](C)CC)[C@@H](C)CC)[C@@H](C)CC)[C@@H](C)CC)[C@@H](C)CC)[C@@H](C)CC [Oct-(SEQ ID NO: 27)-OH] (Octanoyl-KIAGKIAKIAGKIAKIAGKIA-OH) | 32 | 8 | 16 | 2 μl/ml | 2 | 1 | 1 | 2 μl/ml | 32 | 4 | – | – | – | –
3 | CCCCCCCC(=O)N[C@@H](CCCCNC(=N)N)C(=O)N[C@H](C(=O)N[C@@H](C)C(=O)NCC(=O)N[C@@H](CCCCNC(=N)N)C(=O)N[C@H](C(=O)N[C@@H](C)C(=O)N[C@@H](CCCCNC(=N)N)C(=O)N[C@H](C(=O)N[C@@H](C)C(=O)NCC(=O)N[C@@H](CCCCNC(=N)N)C(=O)N[C@H](C(=O)N[C@@H](C)C(=O)N[C@@H](CCCCNC(=N)N)C(=O)N[C@H](C(=O)N[C@@H](C)C(=O)NCC(=O)N[C@@H](CCCCNC(=N)N)C(=O)N[C@H](C(=O)N[C@@H](C)C(N)=O)[C@@H](C)CC)[C@@H](C)CC)[C@@H](C)CC)[C@@H](C)CC)[C@@H](C)CC)[C@@H](C)CC [Oct-(SEQ ID NO: 66)-NH2] (Octanoyl-[hArg]IAG[hArg]IA[hArg]IAG[hArg]IA[hArg]IAG[hArg]IA-NH2) | 16 | 16 | 32 | 2 μl/ml | 4 | 2 | 8 | 2 μl/ml | 256 | 8 | – | – | – | –
4 | CCCCCCCC(=O)N[C@@H](CCCCN)C(=O)N[C@@H](CCCCN)C(=O)N[C@@H](CC(C)C)C(=O)N[C@@H](C)C(=O)N[C@@H](CCCCN)C(=O)N[C@@H](CC(C)C)C(=O)N[C@@H](C)C(=O)N[C@@H](CCCCN)C(=O)N[C@@H](CCCCN)C(=O)N[C@@H](CC(C)C)C(=O)N[C@@H](C)C(N)=O [Oct-(SEQ ID NO: 123)-NH2] (Octanoyl-KKLAKLAKKLA-NH2) | – | – | – | – | – | – | – | – | – | – | 16 µg/mL | 32 | 32 | 32
5 | CCCCCCCC(=O)N[C@@H](CCCCN)C(=O)N[C@@H](CC(C)C)C(=O)N[C@@H](C)C(=O)N[C@@H](CCCCN)C(=O)N[C@@H](CC(C)C)C(=O)N[C@@H](C)C(=O)N[C@@H](CCCCN)C(=O)N[C@@H](CCCCN)C(=O)N[C@@H](CC(C)C)C(=O)N[C@@H](C)C(N)=O [Oct-(SEQ ID NO: 124)-NH2] (Octanoyl-KLAKLAKKLA-NH2) | – | – | – | – | – | – | – | – | – | – | 64 µg/mL | 128 | 256 | 128
6 | CCCCCCCC(=O)N[C@H](CC(C)C)C(=O)N[C@H](CCCCN)C(=O)N[C@H](CCCCN)C(=O)N[C@H](CC(C)C)C(=O)N[C@H](CC(C)C)C(=O)N[C@H](CCCCN)C(=O)N[C@H](CCCCN)C(=O)N[C@H](CC(C)C)C(=O)N[C@H](CCCCN)C(=O)N[C@H](CCCCN)C(=O)N[C@H](CC(C)C)C(N)=O [Oct-D-(SEQ ID NO: 110)-NH2] (Octanoyl-[dL][dK][dK][dL][dL][dK][dK][dL][dK][dK][dL]-NH2) | – | 4 | – | – | – | – | – | – | 32 | 16 | – | – | – | –
7 | CC[C@H](C)[C@H](NC(=O)[C@H](CCCCN)NC(=O)CNC(=O)[C@H](C)NC(=O)[C@@H](NC(=O)[C@H](CCCCN)NC(=O)[C@H](C)NC(=O)[C@@H](NC(=O)[C@H](CCCCN)NC(=O)CNC(=O)[C@H](C)NC(=O)[C@@H](NC(=O)[C@H](CCCCN)NC(=O)[C@H](C)NC(=O)[C@@H](NC(=O)[C@H](CCCCN)NC(=O)CNC(=O)[C@H](C)NC(=O)[C@@H](NC(=O)[C@H](CCCCN)NC(=O)CCC(=O)O)[C@@H](C)CC)[C@@H](C)CC)[C@@H](C)CC)[C@@H](C)CC)[C@@H](C)CC)C(=O)N[C@@H](C)C(N)=O [Suc-((SEQ ID NO: 27)-NH2] (Suc-KIAGKIAKIAGKIAKIAGKIA-NH2) | – | >256 | – | – | – | – | – | – | 128 | 32 | – | – | – | –
8 | CCCCC(=O)N[C@@H](CC(C)C)C(=O)N[C@@H](CCCCN)C(=O)N[C@@H](CCCCN)C(=O)N[C@@H](CC(C)C)C(=O)N[C@@H](CC(C)C)C(=O)N[C@@H](CCCCN)C(=O)N[C@@H](CCCCN)C(=O)N[C@@H](CC(C)C)C(=O)N[C@@H](CCCCN)C(=O)N[C@@H](CCCCN)C(=O)N[C@@H](CC(C)C)C(N)=O [Val-(SEQ ID NO: 110)-NH2] (Pentanoyl-LKKLLKKLKKL-NH2) | – | 8 | – | – | – | – | – | – | 32 | 32 | – | – | – | –
9 | (Lys Ile Ala Lys Lys Ile Ala)3 (KIAKKIAKIAKKIAKIAKKIA-NH2) [(SEQ ID NO. 86)-NH2] | 16 | – | 4 | 8 μl/ml | 8 | 4 | 2 | 8,128 μl/ml | – | – | – | – | – | –
10 | H-GIKKFLKKAGKFGKAF-NH2 [(SEQ ID NO: 149)-NH2] | – | 32 | – | – | – | – | – | – | 64 | 32 | – | – | – | –
11 | H-KIAGKIAKIAGKIAKIAGKIA-NH2 [(SEQ ID NO: 27)-NH2, (Lys Ile Ala Gly Lys Ile Ala)3] | 16 | – | 16 | 8,128 μl/ml | 128 | 4 | 16 | 64 μl/ml | – | 8 | 64,128 μg/ml | – | – | –
